Bounds are passed on as bounds.

Consider `CCCC1=C(C(=O)OCC)C(c2ccccc2Cl)c2cn(C(=O)Nc3ccccc3)nc2N1` (centres unmarked) [Example 215, Ethyl 4-(2-chlorophenyl)-4,7-dihydro-2-phenylcarbamoyl-6-propyl-2H-pyrazolo[3,4-b]pyridine-5-carboxylate], for which the melting point lay in the range of 145 to 147 °C.

`CCCC1=C(C#N)C(c2ccccc2Cl)c2cnn(C(=O)Nc3ccccc3)c2N1` (centres unmarked) [Example 283, 4-(2-Chlorophenyl)-5-cyano-4,7-dihydro-1-phenylcarbamoyl-6-propyl-1 H-pyrazolo[3,4-b]pyridine] returned a melting point of 138 to 140 °C.

Regarding `CCCC1=C(C(=O)OCC)C(c2c(Cl)cccc2Cl)c2c[nH]nc2N1` (centres unmarked) [Example 55, Ethyl 4-(2,6-dichlorophenyl)-4,7-dihydro-6-propyl-2H-pyrazolo[3,4-b]pyridine-5-carboxylate], the melting point is 202 °C.

On to `CCCC1=C(C#N)C(c2cccc(C)c2[N+](=O)[O-])c2c[nH]nc2N1` (centres unmarked) [Example 338, 5-Cyano-4,7-dihydro-4-(3-methyl-2-nitrophenyl)-6-propyl-2H-pyrazolo[3,4-b]pyridine], for which the melting point was 250 °C.

In turn, `CCCC1=C(C(=O)OCC)C(c2c(OC)ccc3ccccc23)c2c[nH]nc2N1` (centres unmarked) [Example 68, Ethyl 4,7-dihydro-4-(2-methoxynaphthalen-1-yl)-6-propyl-2H-pyrazolo[3,4-b]pyridine-5-carboxylate] had a melting point of 188 to 191 °C.

As to `CCC1=C(C#N)C(c2cccc(Cl)c2Cl)c2c[nH]nc2N1` (centres unmarked) [Example 193, 5-Cyano-4-(2,3-dichlorophenyl)-6-ethyl-4,7-dihydro-2H-pyrazolo[3,4-b]pyridine], the melting point is above 300 °C.

With `CC(=O)N1CCCC(C2=C(C#N)C(c3cccc4nonc34)c3c[nH]nc3N2)C1` (centres unmarked) [Example 1032, 6-(1-Acetylpiperidin-3-yl)-4-(2,1,3-benzoxadiazol-4-yl)-5-cyano-4,7-dihydro-2H-pyrazolo[3,4-b]pyridine], the melting point turned out to be 219 °C.

`CCCC1=C(C(=O)OCC)C(c2ccccc2OCc2ccccc2)c2c[nH]nc2N1` (centres unmarked) [Example 38, Ethyl 4-(2-benzyloxyphenyl)-4,7-dihydro-6-propyl-2H-pyrazolo[3,4-b]pyridine-5-carboxylate]: the melting point was determined as 128 °C.

`CCCC1=C(C(=O)OCC)C(c2nccn2C)c2c[nH]nc2N1` (centres unmarked) [Example 237, Ethyl 4,7-dihydro-4-(1-methyl-1H-imidazol-2-yl)-6-propyl-2H-pyrazolo[3,4-b]pyridine-5-carboxylate]: the melting point worked out at 209 °C.

Take `CCCC1=C(C#N)C(c2ccccc2C)c2c[nH]nc2N1` (centres unmarked) [Example 131, 5-Cyano-4,7-dihydro-4-(2-methylphenyl)-6-propyl-2H-pyrazolo[3,4-b]pyridine]: the melting point is 230 °C.

Regarding `N#CC1=C(c2ccc(Br)s2)Nc2n[nH]cc2C1c1cccc2nonc12` (centres unmarked) [Example 291, 4-(2,1,3-Benzoxadiazol-4-yl)-6-(2-bromothiophen-5-yl)-5-cyano-4,7-dihydro-2H-pyrazolo[3,4-b]pyridine], the melting point worked out at 208 °C.

In turn, `CC1=C(C(=O)N(C)C)C(c2ccccc2Cl)c2c[nH]nc2N1` (centres unmarked) [Example 8, 4-(2-Chlorophenyl)-5-dimethylaminocarbonyl-4,7-dihydro-6-methyl-2H-pyrazolo[3,4-b]pyridine] gave a melting point of 229 °C.

In turn, `CCOC(=O)C1=C(CC)Nc2n[nH]cc2C1c1ccccc1OC` (centres unmarked) [Example 89, Ethyl 6-ethyl-4,7-dihydro-4-(2-methoxyphenyl)-2H-pyrazolo[3,4-b]pyridine-5-carboxylate] showed a melting point of 169 °C.

Turning to `CCCC1=C(C(=O)OCC)C(c2cccc3ccccc23)c2c[nH]nc2N1` (centres unmarked) [Example 66, Ethyl 4,7-dihydro-4-(naphthalen-1-yl)-6-propyl-2H-pyrazolo[3,4-b]pyridine-5-carboxylate], the melting point amounted to 182 °C.

These data come from patent publication US6977262B2, “Dihydropyrazolopyridine compounds and pharmaceutical use thereof” (Mitsubishi Pharma Corporation, priority 2001, dated 2005).
